Results taken from patent publication US4044151A, “Sulfamidophenethanolamine therapeutic process” (Mead Johnson & Company, priority 1975, dated 1977).

Tests used:
[1] = anti-arrhythmic activity
[2] = system: beta-adrenergic receptors; test: beta-adrenergic blocking action and its selectivity (cardiac, vascular smooth muscle, metabolic effects); format: in vivo; conditions: for relative specificity of beta-adrenergic antagonism, peripheral vasculature versus heart: effects of beta-adrenergic agonists; for level of activity: in vivo

CC(C)NCC(O)c1ccc(NS(=O)(=O)N(C)C)cc1 (centres unmarked) [N,N-dimethyl-N'-[4-(1-hydroxy-2-isopropylaminoethyl)phenyl]sulfamide]
anti-arrhythmic activity [1]: potent anti-arrhythmic agent | anti-arrhythmic potency relative to procainamide ([1]; versus procainamide): 2.6 times | anti-arrhythmic potency relative to quinidine ([1]; versus quinidine): 1.3 times | relative specificity of beta-adrenergic antagonism, peripheral vasculature versus heart [2]: relative specificity for antagonism of the effects of beta-adrenergic agonists on the peripheral vasculature | level of activity [2]: high level of activity | selectivity of beta-adrenergic blocking action, cardiac and smooth muscle versus metabolic effects ([2]; versus anti-hyperglycemia and anti-hyperlactacidemia): relatively selective for cardiac and smooth muscle as opposed to the metabolic effects of anti-hyperglycemia and anti-hyperlactacidemia

CC(C)NCC(O)c1ccc(NS(N)(=O)=O)cc1 (centres unmarked) [N-[4-(1-hydroxy-2-isopropylaminoethyl)phenyl]sulfamide]
relative specificity of beta-adrenergic antagonism, peripheral vasculature versus heart [2]: relatively stronger antagonist of the direct cardiac stimulatory effects evoked by beta-adrenergic agonists than of the peripheral vascular smooth muscle | level of activity [2]: high level of activity
